structure (smiles),measurement,setting,value
CC(C)(C)OC(=O)N[C@@H](CCCN=C(N)N[N+](=O)[O-])C(=O)O,solubility (mole fraction),"in DMF, 283.15 K",0.164
same,solubility (mole fraction),"in DMF, 288.15 K",0.185
same,solubility (mole fraction),"in DMF, 293.15 K",0.211
same,solubility (mole fraction),"in DMF, 298.15 K",0.246
same,solubility (mole fraction),"in DMF, 303.15 K",0.29
same,solubility (mole fraction),"in DMF, 308.15 K",0.346
same,solubility (mole fraction),"in DMF, 313.15 K",0.415
same,solubility (mole fraction),"in DMF, 318.15 K",0.505
same,solubility (mole fraction),"in DMF, 323.15 K",0.62
same,solubility (mole fraction),"in acetonitrile, 283.15 K",0.0012
same,solubility (mole fraction),"in acetonitrile, 288.15 K",0.00144
same,solubility (mole fraction),"in acetonitrile, 293.15 K",0.00168
same,solubility (mole fraction),"in acetonitrile, 298.15 K",0.00193
same,solubility (mole fraction),"in acetonitrile, 303.15 K",0.00222
same,solubility (mole fraction),"in acetonitrile, 308.15 K",0.00262
same,solubility (mole fraction),"in acetonitrile, 313.15 K",0.00324
same,solubility (mole fraction),"in acetonitrile, 318.15 K",0.00392
same,solubility (mole fraction),"in acetonitrile, 323.15 K",0.00491
same,solubility (mole fraction),"in ethanol, 283.15 K",0.015
same,solubility (mole fraction),"in ethanol, 288.15 K",0.0188
same,solubility (mole fraction),"in ethanol, 293.15 K",0.0234
same,solubility (mole fraction),"in ethanol, 298.15 K",0.0282
same,solubility (mole fraction),"in ethanol, 303.15 K",0.0327
same,solubility (mole fraction),"in ethanol, 308.15 K",0.0391
same,solubility (mole fraction),"in ethanol, 313.15 K",0.0469
same,solubility (mole fraction),"in ethanol, 318.15 K",0.0563
same,solubility (mole fraction),"in ethanol, 323.15 K",0.0666
same,solubility (mole fraction),"in ethyl acetate, 283.15 K",0.000705
same,solubility (mole fraction),"in ethyl acetate, 288.15 K",0.000846
same,solubility (mole fraction),"in ethyl acetate, 293.15 K",0.000955
same,solubility (mole fraction),"in ethyl acetate, 298.15 K",0.00104
same,solubility (mole fraction),"in ethyl acetate, 303.15 K",0.00114
same,solubility (mole fraction),"in ethyl acetate, 308.15 K",0.0013
same,solubility (mole fraction),"in ethyl acetate, 313.15 K",0.00147
same,solubility (mole fraction),"in ethyl acetate, 318.15 K",0.00161
same,solubility (mole fraction),"in ethyl acetate, 323.15 K",0.00187
same,solubility (mole fraction),"in isobutanol, 283.15 K",0.00231
same,solubility (mole fraction),"in isobutanol, 288.15 K",0.00296
same,solubility (mole fraction),"in isobutanol, 293.15 K",0.00394
same,solubility (mole fraction),"in isobutanol, 298.15 K",0.00499
same,solubility (mole fraction),"in isobutanol, 303.15 K",0.00618
same,solubility (mole fraction),"in isobutanol, 308.15 K",0.00799
same,solubility (mole fraction),"in isobutanol, 313.15 K",0.00954
same,solubility (mole fraction),"in isobutanol, 318.15 K",0.0112
same,solubility (mole fraction),"in isobutanol, 323.15 K",0.0143
same,solubility (mole fraction),"in isopropanol, 283.15 K",0.00489
same,solubility (mole fraction),"in isopropanol, 288.15 K",0.0067
same,solubility (mole fraction),"in isopropanol, 293.15 K",0.00844
same,solubility (mole fraction),"in isopropanol, 298.15 K",0.0102
same,solubility (mole fraction),"in isopropanol, 303.15 K",0.0127
same,solubility (mole fraction),"in isopropanol, 308.15 K",0.0152
same,solubility (mole fraction),"in isopropanol, 313.15 K",0.0184
same,solubility (mole fraction),"in isopropanol, 318.15 K",0.0224
same,solubility (mole fraction),"in isopropanol, 323.15 K",0.0267
same,solubility (mole fraction),"in methanol, 283.15 K",0.042
same,solubility (mole fraction),"in methanol, 288.15 K",0.0507
same,solubility (mole fraction),"in methanol, 293.15 K",0.0601
same,solubility (mole fraction),"in methanol, 298.15 K",0.0692
same,solubility (mole fraction),"in methanol, 303.15 K",0.0752
same,solubility (mole fraction),"in methanol, 308.15 K",0.0824
same,solubility (mole fraction),"in methanol, 313.15 K",0.0908
same,solubility (mole fraction),"in methanol, 318.15 K",0.0976
same,solubility (mole fraction),"in methanol, 323.15 K",0.111
same,solubility (mole fraction),"in n-butanol, 283.15 K",0.00377
same,solubility (mole fraction),"in n-butanol, 288.15 K",0.00498
same,solubility (mole fraction),"in n-butanol, 293.15 K",0.00583
same,solubility (mole fraction),"in n-butanol, 298.15 K",0.00707
same,solubility (mole fraction),"in n-butanol, 303.15 K",0.00842
same,solubility (mole fraction),"in n-butanol, 308.15 K",0.00996
same,solubility (mole fraction),"in n-butanol, 313.15 K",0.0121
same,solubility (mole fraction),"in n-butanol, 318.15 K",0.0142
same,solubility (mole fraction),"in n-butanol, 323.15 K",0.0172
same,solubility (mole fraction),"in n-pentanol, 283.15 K",0.00254
same,solubility (mole fraction),"in n-pentanol, 288.15 K",0.00351
same,solubility (mole fraction),"in n-pentanol, 293.15 K",0.0042
same,solubility (mole fraction),"in n-pentanol, 298.15 K",0.00489
same,solubility (mole fraction),"in n-pentanol, 303.15 K",0.00595
same,solubility (mole fraction),"in n-pentanol, 308.15 K",0.00735
same,solubility (mole fraction),"in n-pentanol, 313.15 K",0.00886
same,solubility (mole fraction),"in n-pentanol, 318.15 K",0.0106
same,solubility (mole fraction),"in n-pentanol, 323.15 K",0.013
same,solubility (mole fraction),"in n-propanol, 283.15 K",0.00543
same,solubility (mole fraction),"in n-propanol, 288.15 K",0.00744
same,solubility (mole fraction),"in n-propanol, 293.15 K",0.00919
same,solubility (mole fraction),"in n-propanol, 298.15 K",0.0114
same,solubility (mole fraction),"in n-propanol, 303.15 K",0.0132
same,solubility (mole fraction),"in n-propanol, 308.15 K",0.0161
same,solubility (mole fraction),"in n-propanol, 313.15 K",0.0195
same,solubility (mole fraction),"in n-propanol, 318.15 K",0.0236
same,solubility (mole fraction),"in n-propanol, 323.15 K",0.0285
same,solubility (mole fraction),"in sec-butanol, 283.15 K",0.00398
same,solubility (mole fraction),"in sec-butanol, 288.15 K",0.00546
same,solubility (mole fraction),"in sec-butanol, 293.15 K",0.00729
same,solubility (mole fraction),"in sec-butanol, 298.15 K",0.00896
same,solubility (mole fraction),"in sec-butanol, 303.15 K",0.0113
same,solubility (mole fraction),"in sec-butanol, 308.15 K",0.0138
same,solubility (mole fraction),"in sec-butanol, 313.15 K",0.0162
same,solubility (mole fraction),"in sec-butanol, 318.15 K",0.0192
same,solubility (mole fraction),"in sec-butanol, 323.15 K",0.0222
same,solubility (mole fraction),"in water, 283.15 K",0.000283
same,solubility (mole fraction),"in water, 288.15 K",0.000334
same,solubility (mole fraction),"in water, 293.15 K",0.000356
same,solubility (mole fraction),"in water, 298.15 K",0.000404
same,solubility (mole fraction),"in water, 303.15 K",0.000471
same,solubility (mole fraction),"in water, 308.15 K",0.000522
same,solubility (mole fraction),"in water, 313.15 K",0.000643
same,solubility (mole fraction),"in water, 318.15 K",0.000799
same,solubility (mole fraction),"in water, 323.15 K",0.000986

# Source: BigSolDB 2.1
